Laboratory results: patent US10294237B2, “Bicyclic heterocyclic amide derivative” (Sumitomo Dainippon Pharma Co., Ltd., priority 2015, dated 2019)

Columns and labels:
HCT-116 cells [1] = test: Anti-tumor effect to HCT-116 tumor-bearing mouse; format: in vivo; details: oral, administration period 17 days, nude mouse
Source text: The present compound can be used to evaluate the anti-tumor effect thereof. A 4 to 7-week-old nude mouse (BALB/cAnNCrj-nu/nu, female, CHARLES RIVER LABORATORIES JAPAN, INC.) received intradermal transplantation of HCT-116 cells (ATCC) in an amount of 3×10^6 cells/mouse around the ventral portion. The engraftment of HCT-116 cells was observed 5 to 14 days after the transplantation, and then each compound suspended in a solvent such as 0.5% methylcellulose solution was orally administrated to the mouse in a dose of 1 to 100 mg/kg one to twice daily. The tumor volume was measured over time after the administration to evaluate the effect for reducing the tumor volume by the administration of each compound. The tumor volume can be calculated from the minor axis and the major axis of the tumor measured with a digital caliper (Mitutoyo) according to the following formula: Tumor volume [mm^3]=0.5×minor axis [mm]×(major axis [mm])^2
The tumor volume in control administration group treated with only a solvent such as 0.5% methylcellulose solution was compared with that of the present compound administration group, and T/C value was calculated according the following formula to evaluate the anti-tumor effect of the present compound. T/C(%)=(the tumor volume at the end of administration in the present compound administration group−the tumor volume at the start of administration in the present compound administration group)/(the tumor volume at the end of administration in the control administration group−the tumor volume at the start of administration in the control administration group)×100
The T/C values (%) of the present compound on each dosage and administration period in the HCT-116 tumor-bearing mouse are shown below.

HCT-116 cells [2] = test: Test for inhibiting sphere-forming ability of cancer cells (in the presence of BSA); format: cell-based; details: HCT-116 spheres, non-adherent, 5% BSA, 4 days, CellTiter-Glo, read-out: IC50 (Sphere IC50 value; concentration for 50% inhibition of cell proliferation)
Experimental: HCT-116 cells were available from the American Type Culture Collection (ATCC). HCT-116 cells were cultured at 37° C. and 5% CO2 using the McCoy's 5a medium containing 10% fetal bovine serum (FBS) and 1% penicillin/streptomycin. HCT-116 cells were seeded in a 384 Well Black Clear Bottom Ultra-Low Attachment Microplate (Corning Cat. No. 3827) in an amount of 350-800 cells/well using the DMEM/F12 medium containing 2% B27 supplement (GIBCO), 20 ng/mL epidermal growth factor (EGF) (peprotech), 10 ng/mL basic fibroblast growth factor (bFGF) (peprotech), 5 μg/mL insulin (Sigma), 5% bovine serum albumin (BSA), and 1% penicillin/streptomycin. The test compounds were added into each well to adjust the final concentration of DMSO to 0.1%, and the cells were cultured for 4 days. The number of viable cells in each well was then measured with CellTiter-Glo® Luminescent Cell Viability Assay (Promega) to calculate the concentration of each test compound for 50% inhibition of cell proliferation (Sphere IC50 value; μmol/L).
The experiment of Test Example 2 was performed for the compounds of each Example. The concentrations of each test compound for 50% inhibition of cell profeliration (Sphere IC50 value; μmol/L) are shown in the following Table.

HCT-116 cells [3] = test: Test for inhibiting sphere-forming ability of cancer cells; format: cell-based; details: HCT-116 spheres, non-adherent, serum-free, 4 days, CellTiter-Glo, read-out: IC50 (Sphere IC50 value; concentration for 50% inhibition of cell proliferation)
Experimental: The reliable methods established for measuring the self-renewal ability of cells which is one of the CSC's properties include a method for measuring the sphere-forming ability of cancer cells in non-adherent condition in the absence of serum (Cancer Res 65, 5506-5511 (2005)). HCT-116 cells were available from the American Type Culture Collection (ATCC). HCT-116 cells were cultured at 37° C. and 5% CO2 using the McCoy's 5a medium containing 10% fetal bovine serum (FBS) and 1% penicillin/streptomycin. HCT-116 cells were seeded in a 384 Well Black Clear Bottom Ultra-Low Attachment Microplate (Corning Cat. No. 3827) in an amount of 350-800 cells/well using the DMEM/F12 medium containing 2% B27 supplement (GIBCO), 20 ng/mL epidermal growth factor (EGF) (peprotech), 10 ng/mL basic fibroblast growth factor (bFGF) (peprotech), 5 μg/mL insulin (Sigma), and 1% penicillin/streptomycin. The test compounds were added into each well to adjust the final concentration of DMSO to 0.1%, and the cells were cultured for 4 days. The number of viable cells in each well was then measured with CellTiter-Glo® Luminescent Cell Viability Assay (Promega) to calculate the concentration of each test compound for 50% inhibition of cell proliferation (Sphere IC50 value; μmol/L).
The experiment of Test Example 1 was performed for the compounds of each Example. The concentrations of each test compound for 50% inhibition of cell profeliration (Sphere IC50 value; μmol/L) are shown in the following Table.

| Structure (SMILES) | T/C (HCT-116 cells [1]; dosage 10 mg/kg) [%] | T/C (HCT-116 cells [1]; dosage 30 mg/kg) [%] | IC50 (HCT-116 cells [2]; Homo sapiens, HCT-116, 96 h) [µM] | IC50 (HCT-116 cells [3]; Homo sapiens, 96 h) [µM] | T/C (HCT-116 cells [1]; dosage 100 mg/kg) [%] | IC50 (HCT-116 cells [2]) [µM] | IC50 (HCT-116 cells [3]) [µM] |
| --- | --- | --- | --- | --- | --- | --- | --- |
| O=C(Nc1cc2c(cn1)CNCC2)c1cn(Cc2cc(F)c(F)c(F)c2)cn1 [Example 3, N-(5,6,7,8-tetrahydro-2,7-naphthyridin-3-yl)-1-(3,4,5-trifluorobenzyl)-1H-imidazole-4-carboxamide] | 90 | 79 | 0.03 | 0.06 | – | – | – |
| O=C(Nc1cn(Cc2cc(F)c(F)c(F)c2)cn1)c1cc(F)c2c(c1)CCNC2 [Example 5, 8-fluoro-N-[1-(3,4,5-trifluorobenzyl)-1H-imidazol-4-yl]-1,2,3,4-tetrahydroisoquinoline-6-carboxamide] | – | 71 | 0.06 | 0.07 | 42 | – | – |
| O=C(Nc1cn(Cc2cc(F)c(F)c(F)c2)cn1)c1ccc2c(c1)CCNC2 [Example 6, N-[1-(3,4,5-trifluorobenzyl)-1H-imidazol-4-yl]-1,2,3,4-tetrahydroisoquinoline-6-carboxamide] | – | 73 | – | – | – | 0.05 | 0.06 |
| O=C(Nc1cn(Cc2cccc(C(F)(F)F)c2)cn1)c1ccc2c(n1)CCNC2 [Example 10, N-{1-[3-(trifluoromethyl)benzyl]-1H-imidazol-4-yl}-5,6,7,8-tetrahydro-1,6-naphthyridine-2-carboxamide] | – | 55 | 0.05 | 0.04 | 49 | – | – |
| O=C(Nc1cn(Cc2cc(F)c(F)c(F)c2)cn1)c1ccc2c(n1)CCNC2 [Example 11, N-[1-(3,4,5-trifluorobenzyl)-1H-imidazol-4-yl]-5,6,7,8-tetrahydro-1,6-naphthyridine-2-carboxamide] | – | 62 | 0.05 | 0.05 | 46 | – | – |
| O=C(Nc1cn(Cc2cc(F)c(F)c(F)c2)cn1)c1cnc2c(c1)CCNC2 [Example 12, N-[1-(3,4,5-trifluorobenzyl)-1H-imidazol-4-yl]-5,6,7,8-tetrahydro-1,7-naphthyridine-3-carboxamide] | – | 79 | 0.06 | 0.07 | 73 | – | – |
| O=C(Nc1cn(Cc2cccc(C(F)(F)F)c2)cn1)c1cnc2c(c1)CCNC2 [Example 13, N-{1-[3-(trifluoromethyl)benzyl]-1H-imidazol-4-yl}-5,6,7,8-tetrahydro-1,7-naphthyridine-3-carboxamide] | – | 62 | 0.06 | 0.03 | 59 | – | – |
| O=C(Nc1cn(Cc2cc(Br)cc(Br)c2)cn1)c1ccc2c(c1)CCNC2 [Example 96] | – | – | 0.2 | 0.06 | – | – | – |
| Cc1ccc(Cn2cnc(NC(=O)c3ccc4c(c3)CCNC4)c2)cc1C(F)(F)F [Example 97, N-{1-[4-methyl-3-(trifluoromethyl)benzyl]-1H-imidazol-4-yl}-1,2,3,4-tetrahydroisoquinoline-6-carboxamide] | – | – | 0.59 | 0.07 | – | – | – |
| COc1cc(Cn2cnc(NC(=O)c3ccc4c(c3)CCNC4)c2)cc(C(F)(F)F)c1 [Example 98] | – | – | 0.51 | 0.5 | – | – | – |
| O=C(Nc1cn(Cc2cc(F)cc(C(F)(F)F)c2)cn1)c1ccc2c(c1)CCNC2 [Example 99, N-{1-[3-fluoro-5-(trifluoromethyl)benzyl]-1H-imidazol-4-yl}-1,2,3,4-tetrahydroisoquinoline-6-carboxamide] | – | – | 0.06 | 0.06 | – | – | – |
| O=C(Nc1cn(Cc2cc(Cl)cc(OC(F)(F)F)c2)cn1)c1ccc2c(c1)CCNC2 [Example 100, N-{1-[3-chloro-5-(trifluoromethoxy)benzyl]-1H-imidazol-4-yl}-1,2,3,4-tetrahydroisoquinoline-6-carboxamide] | – | – | 0.07 | 0.06 | – | – | – |
| O=C(Nc1cn(Cc2cc(Cl)cc(Cl)c2)cn1)c1ccc2c(c1)CCNC2 [Example 101, N-[1-(3,5-dichlorobenzyl)-1H-imidazol-4-yl]-1,2,3,4-tetrahydroisoquinoline-6-carboxamide] | – | – | 0.06 | 0.07 | – | – | – |
| O=C(Nc1cn(Cc2ccc(Cl)c(Cl)c2)cn1)c1ccc2c(c1)CCNC2 [Example 102, N-[1-(3,4-dichlorobenzyl)-1H-imidazol-4-yl]-1,2,3,4-tetrahydroisoquinoline-6-carboxamide] | – | – | 0.06 | 0.06 | – | – | – |
| O=C(Nc1cn(Cc2ccc3ccccc3c2)cn1)c1ccc2c(c1)CCNC2 [Example 103] | – | – | 6.1 | 4.18 | – | – | – |
| O=C(Nc1cn(Cc2ccc(C(F)(F)F)o2)cn1)c1ccc2c(c1)CCNC2 [Example 104] | – | – | 0.53 | 0.62 | – | – | – |
| CN(C)c1cccc(Cn2cnc(NC(=O)c3ccc4c(c3)CCNC4)c2)c1 [Example 105] | – | – | 5.12 | 5.9 | – | – | – |
| O=C1CCc2cc(C(=O)Nc3cn(Cc4cccc(C(F)(F)F)c4)cn3)ccc2C1 [Example 110, 6-Oxo-N-{1-[3-(trifluoromethyl)benzyl]-1H-imidazol-4-yl}-5,6,7,8-tetrahydronaphthalene-2-carboxamide] | – | – | 0.58 | 0.68 | – | – | – |
| O=C(Nc1cn(Cc2cccc(C(F)(F)F)c2)cn1)c1ccc2c(c1)CCC(O)C2 (stereo not drawn) [Example 111, 6-Hydroxy-N-{1-[3-(trifluoromethyl)benzyl]-1H-imidazol-4-yl}-5,6,7,8-tetrahydronaphthalene-2-carboxamide] | – | – | 0.98 | 0.69 | – | – | – |
| O=C(/C=C/c1ccc2c(c1)CCNC2)Nc1cn(Cc2cc(F)c(F)c(F)c2)cn1 [Example 112] | – | – | 6.34 | 0.71 | – | – | – |
| O=C(Nc1cn(CCOc2ccccc2)cn1)c1cnc2c(c1)CCNC2 [Example 116] | – | – | – | – | – | 1.97 | 5.99 |
| O=C(Nc1cn(CCCOc2ccccc2)cn1)c1cnc2c(c1)CCNC2 [Example 117] | – | – | – | – | – | 5.68 | 6.81 |
| O=C(Nc1cn(Cc2ccc3c(c2)OCO3)cn1)c1cnc2c(c1)CCNC2 [Example 119] | – | – | – | – | – | 0.63 | 0.73 |
| O=C(Nc1cn(Cc2cccc(F)c2)cn1)c1cnc2c(c1)CCNC2 [Example 120] | – | – | – | – | – | 0.07 | 0.08 |
| Cc1cccc(Cn2cnc(NC(=O)c3cnc4c(c3)CCNC4)c2)c1 [Example 121] | – | – | – | – | – | 0.07 | 0.08 |
